Reference: patent US7547729B2, “1,3-diphenylprop-2-en-1-one derivative compounds, preparation method thereof and uses of same” (Genfit, priority 2004, dated 2009)

Key:
naive CD4+ T cells = assay: Mixed Lymphocyte Reaction (MLR), BrdU incorporation; type: cell-based
Protocol: FIG. 23 illustrates a Mixed Lymphocyte Reaction (MLR) carried out in the presence of increasing amounts of dendritic cells treated or not with compound 31 and incubated with naive CD4+ T cells for seven days. T cell proliferation was determined by BrdU (bromodeoxyuridine) incorporation.
For this experiment, increasing amounts of mature dendritic cells (treated or not with the compound) were incubated with a fixed amount of naive CD4+ T cells from another donor. After a 5-day incubation, BrdU (bromodeoxyuridine) was added for 24 hours and the incorporation thereof in T cells was determined by ELISA with anti-BrdU antibodies coupled to chemiluminescent tags.

PPARδ = target: T1, PPARδ (Homo sapiens, UniProt Q03181); assay: PPARδ/Gal4 transactivation system in COS-7 cells; type: cell-based; conditions: 24 hours
T1 construct: expressed in transfected cells; host or cells: COS-7 cells
T1 sequence (Q03181 211-439 limits assumed): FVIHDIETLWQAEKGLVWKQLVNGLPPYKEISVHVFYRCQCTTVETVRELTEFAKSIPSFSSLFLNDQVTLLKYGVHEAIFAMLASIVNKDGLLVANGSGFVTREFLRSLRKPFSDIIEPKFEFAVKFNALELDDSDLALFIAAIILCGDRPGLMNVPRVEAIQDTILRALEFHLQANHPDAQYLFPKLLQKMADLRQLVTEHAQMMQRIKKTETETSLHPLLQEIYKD
Protocol: COS-7 cells were incubated with different concentrations of the inventive compounds for 24 hours. The results are expressed as the induction factor (ratio of luminescent signal obtained with the compound and that observed without the compound) after the different treatments.
PPAR activation was tested in vitro in RK13 epitheloid or COS-7 cell lines by measuring the transcriptional activity of chimeras composed of the DNA binding domain of the yeast gal4 transcription factor and the ligand binding domain of the different PPARs. These latter results were then confirmed in cell lines according to the following protocols:
RK13 cells were from ECACC (Porton Down, UK), COS-7 cells were from the ATCC (American Type Culture Collection) and were grown in DMEM medium supplemented with 10% (VN) fetal calf serum, 100 U/ml penicillin (Gibco, Paisley, UK) and 2 mM L-glutamine (Gibco, Paisley, UK). The culture medium was changed every two days. Cells were kept at 37° C. in a humidified 95% air/5% CO2 atmosphere.
The plasmids pG5TkpGL3, pRL-CMV, pGal4-hPPARα, pGal4-hPPARγ, pGal4-hPPARδ and pGal4-φ have been described by Raspe, Madsen et al. (1999). The pGal4-mPPARα, pGal4-hPPARγ and pGal4-hPPARδ constructs were obtained by cloning into the pGal4-φ vector of PCR-amplified DNA fragments corresponding to the DEF domains of the human PPARα, PPARγ and PPARδ nuclear receptors.
RK13 cells were seeded in 24-well culture dishes at 5×10^4 cells/well, COS-7 cells in 96-well culture dishes at 5×10^4 cells/well and transfected for 2 hours with the reporter plasmid pG5TkpGL3 (50 ng/well), the expression vectors pGal4-φ, pGal4-mPPARα, pGal4-hPPARα, pGal4-hPPARγ, pGal4-hPPARδ (100 ng/well) and the transfection efficiency control vector pRL-CMV (1 ng/well) according to the previously described protocol (Raspe, Madsen et al. 1999), then incubated for 36 hours with the test compounds. At the end of the experiment, the cells were lysed (Gibco, Paisley, UK) and luciferase activity was determined with a Dual-Luciferase™ Reporter Assay System kit (Promega, Madison, Wis., USA) for RK13 cells and Steady Glow Luciferase (Promega) for COS-7 cells according to the supplier's instructions as previously described. The protein content of the cell extracts was then measured with the Bio-Rad Protein Assay (Bio-Rad, Munich, Germany) as directed by the supplier.

LDL = assay: Protection against LDL oxidation by copper (conjugated diene formation); type: biochemical; conditions: 10^−4M
How it was run: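 EDTA-free LDL (125 μg protein/ml) was oxidized at 30° C. with CuSO4 (16.6 μM solution) plus compound at 0.1–100 μM final. Conjugated dienes followed by OD 232 nm every 10 min for 8 h, in triplicate; activity judged by lag-phase lengthening, reduced oxidation rate and diene amount versus control.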

PPARγ = target: T2, PPARγ (Homo sapiens, UniProt P37231); assay: PPARγ/Gal4 transactivation system in COS-7 cells; type: cell-based; conditions: 24 hours
T2 construct: expressed in transfected cells; host or cells: COS-7 cells
T2 sequence (P37231 238-503 limits assumed): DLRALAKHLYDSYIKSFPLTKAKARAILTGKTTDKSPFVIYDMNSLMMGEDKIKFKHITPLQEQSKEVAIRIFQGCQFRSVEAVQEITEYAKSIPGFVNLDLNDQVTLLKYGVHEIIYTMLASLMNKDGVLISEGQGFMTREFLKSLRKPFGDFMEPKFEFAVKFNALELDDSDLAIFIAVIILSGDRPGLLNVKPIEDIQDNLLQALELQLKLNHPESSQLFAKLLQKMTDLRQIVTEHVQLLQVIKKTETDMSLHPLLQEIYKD
How it was run: (§1)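 COS-7 cells transfected with Gal4-DBD/human PPAR ligand-binding-domain chimeras, pG5TkpGL3 luciferase reporter and pRL-CMV control, then treated with compound concentrations for 24 hours (protocol also states 36 hours). Luciferase measured by Steady Glow; results given as induction factor, luminescence with compound over that without.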

PPARα = target: T3, PPARα (Homo sapiens, UniProt Q07869); assay: PPARα/Gal4 transactivation system in COS-7 cells; type: cell-based; conditions: 24 hours
T3 construct: expressed in transfected cells; host or cells: COS-7 cells
T3 sequence (Q07869 239-466 limits assumed): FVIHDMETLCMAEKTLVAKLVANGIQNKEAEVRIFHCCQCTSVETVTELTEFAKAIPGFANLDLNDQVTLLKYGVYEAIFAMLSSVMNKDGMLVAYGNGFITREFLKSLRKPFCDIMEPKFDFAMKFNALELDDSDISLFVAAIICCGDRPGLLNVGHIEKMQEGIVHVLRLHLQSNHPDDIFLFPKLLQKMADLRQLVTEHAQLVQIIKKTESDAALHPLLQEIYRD
How it was run: as §1

`Cc1cc(/C=C/C(=O)c2c(C)c(C)c(C)c(C)c2C)cc(C)c1OC(C)(C)C(=O)O` [compound 31, 1-(2,3,4,5,6-Pentamethylphenyl)-3-(4-carboxydimethylmethyloxy-3,5-dimethylphenyl)prop-2-en-1-one] was tested, and the “capacity of treated dendritic cells to induce proliferation of naive CD4+ T cells” value (naive CD4+ T cells) was “lower capacity”, the Induction factor (PPARδ; 0.001 μM) was 1.00 and the Induction factor (PPARδ; 0.003 μM) was 1.05. It also gave an Induction factor (PPARδ; 0.01 μM) of 1.09, an Induction factor (PPARδ; 0.03 μM) of 1.16 and an Induction factor (PPARδ; 0.1 μM) of 1.35. For the same molecule, the Induction factor (PPARδ; 0.3 μM) was 2.67, the Induction factor (PPARδ; 1 μM) was 4.12 and the Induction factor (PPARδ; 3 μM) was 10.82. For the same molecule, the Induction factor (PPARδ; 10 μM) was 11.70, the “kinetics of LDL oxidation (lag phase)” value (LDL; FIG. 5a, no control value printed) was 124.5 min and the LDL oxidation rate (LDL; FIG. 5b, absence of compounds 2) was 1.4 nmol/min/mg. For the same molecule, the “total amount of dienes formed” value (LDL; FIG. 5c, absence of compounds 386) was 352 nmol/mg, the Induction factor (PPARγ; 0.001 μM) was 1.44 and the Induction factor (PPARγ; 0.003 μM) was 2.19. It also gave an Induction factor (PPARγ; 0.01 μM) of 3.06, an Induction factor (PPARγ; 0.03 μM) of 4.87 and an Induction factor (PPARγ; 0.1 μM) of 5.99. The Induction factor (PPARγ; 0.3 μM) was 6.96, the Induction factor (PPARγ; 1 μM) was 7.05 and the Induction factor (PPARγ; 3 μM) was 7.79. For the same molecule, the Induction factor (PPARα; 0.001 μM) was 1.10, the Induction factor (PPARα; 0.003 μM) was 1.09 and the Induction factor (PPARα; 0.01 μM) was 1.23. For the same molecule, the Induction factor (PPARα; 0.03 μM) was 1.23, the Induction factor (PPARα; 0.1 μM) was 1.23 and the Induction factor (PPARα; 0.3 μM) was 1.73. For the same molecule, the Induction factor (PPARα; 1 μM) was 1.88, the Induction factor (PPARα; 3 μM) was 3.69 and the Induction factor (PPARα; 10 μM) was 6.03.
